US20020115104A1, “MMSC2 - an MMAC1 interacting protein” (priority 1998, published 2002)
*: point of attachment. Biotin = O=C1N[C@H]2[C@H](CS[C@H]2CCCCC(=O)*)N1

Columns and labels:
MMSC2 PDZ domain 5 (P12) = target: T1, MMSC2 PDZ domain 5 (P12) (Homo sapiens, UniProt O75970); test: PDZ binding assay (ELISA), PDZ domain 5; conditions: immobilized GST-PDZ domain 5 (P12); biotinylated peptide pre-bound to streptavidin-alkaline phosphatase; colorimetric phosphatase assay
T1 construct: 699-785; made in house; host or cells: E. coli
T1 sequence (O75970 699-785 isoform O75970-3): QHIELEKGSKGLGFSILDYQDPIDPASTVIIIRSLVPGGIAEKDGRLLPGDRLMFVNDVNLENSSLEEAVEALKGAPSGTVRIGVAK
Text: (§1) cDNAs encoding each of the MMSC2 PDZ domains (amino acid residues identified in Table 1), and any desired control proteins, were generated by PCR and subcloned as glutathione S-transferase (GST) fusions in pGEX vectors (Pharmacia). After sequencing to confirm expression construct integrity, the resulting clones were expressed in E. coli and the desired fusion proteins isolated with glutathione-agarose and recovered with glutathione elution. These fusion proteins or control proteins were then adsorbed to different wells of a 96-well ELISA plate and remaining sites blocked with BSA. Synthetic commercially synthesized peptides encoding the desired PDZ-binding domain (i.e., the 16 C-terminal amino acids of MMAC1, or the C-terminal peptide sequences of interacting proteins identified by the approach of Example 2, or the C-terminal peptide sequences identified by the approach of Example 3), or a control peptide, and biotinylated at the amino-terminus, were pre-bound to streptavidin-alkaline phosphatase in a 4:1 molar ratio. […] Bound peptide/streptavidin-alkaline phosphatase complex was then quantitated by a colorimetric phosphatase assay read on a 96-well plate reader. […]
(§2) The relative affinity of each of the 13 PDZ domains encoded by MMSC2 for an MMAC1 C-terminal PDZ peptide as measured by an ELISA assay is set forth in Table 2.

MMSC2 PDZ domain 6 (P11) = target: T2, MMSC2 PDZ domain 6 (P11) (Homo sapiens, UniProt O75970); test: PDZ binding assay (ELISA), PDZ domain 6; conditions: immobilized GST-PDZ domain 6 (P11); biotinylated peptide pre-bound to streptavidin-alkaline phosphatase; colorimetric phosphatase assay
T2 construct: 1007-1090; made in house; host or cells: E. coli
T2 sequence (O75970 1007-1090 isoform O75970-3): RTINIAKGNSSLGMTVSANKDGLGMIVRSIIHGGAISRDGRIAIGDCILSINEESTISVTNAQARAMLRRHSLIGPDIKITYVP
Text: as §1, §2

MMSC2 PDZ domain 3 (P13) = target: T3, MMSC2 PDZ domain 3 (P13) (Homo sapiens, UniProt O75970); test: PDZ binding assay (ELISA), PDZ domain 3; conditions: immobilized GST-PDZ domain 3 (P13); biotinylated peptide pre-bound to streptavidin-alkaline phosphatase; colorimetric phosphatase assay
T3 construct: 376-461; made in house; host or cells: E. coli
T3 sequence (O75970 376-461 isoform O75970-3): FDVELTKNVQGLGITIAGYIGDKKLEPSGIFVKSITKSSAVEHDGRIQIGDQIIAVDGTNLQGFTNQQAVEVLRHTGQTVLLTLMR
Text: as §1, §2

MMSC2 PDZ domain 10 (P1) = target: T4, MMSC2 PDZ domain 10 (P1) (Homo sapiens, UniProt O75970); test: PDZ binding assay (ELISA), PDZ domain 10; conditions: for A405: immobilized GST-PDZ domain 10 (P1), biotinylated peptide pre-bound to streptavidin-alkaline phosphatase, colorimetric phosphatase assay
T4 construct: 1595-1677; made in house; host or cells: E. coli
T4 sequence (O75970 1595-1677 isoform O75970-3): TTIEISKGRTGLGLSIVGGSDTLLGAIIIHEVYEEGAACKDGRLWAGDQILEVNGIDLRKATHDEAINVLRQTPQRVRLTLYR
Text: (§3) cDNAs encoding each of the MMSC2 PDZ domains (amino acid residues identified in Table 1), and any desired control proteins, were generated by PCR and subcloned as glutathione S-transferase (GST) fusions in pGEX vectors (Pharmacia). After sequencing to confirm expression construct integrity, the resulting clones were expressed in E. coli and the desired fusion proteins isolated with glutathione-agarose and recovered with glutathione elution. These fusion proteins or control proteins were then adsorbed to different wells of a 96-well ELISA plate and remaining sites blocked with BSA. Synthetic commercially synthesized peptides encoding the desired PDZ-binding domain (i.e., the 16 C-terminal amino acids of MMAC1, or the C-terminal peptide sequences of interacting proteins identified by the approach of Example 2, or the C-terminal peptide sequences identified by the approach of Example 3), or a control peptide, and biotinylated at the amino-terminus, were pre-bound to streptavidin-alkaline phosphatase in a 4:1 molar ratio. The biotinylated peptide streptavidin-alkaline phosphatase complexes were then blocked with free biotin. These pre-bound peptide streptavidin-alkaline phosphatase complexes were then incubated with the immobilized PDZ domains in wash buffer containing PBS, BSA and triton-X100. Unbound material was removed with repeated washes. Bound peptide/streptavidin-alkaline phosphatase complex was then quantitated by a colorimetric phosphatase assay read on a 96-well plate reader. The following peptides were used in the initial study:
as §2

MMSC2 PDZ domain 8 (P8) = target: T5, MMSC2 PDZ domain 8 (P8) (Homo sapiens, UniProt O75970); test: PDZ binding assay (ELISA), PDZ domain 8; conditions: immobilized GST-PDZ domain 8 (P8); biotinylated peptide pre-bound to streptavidin-alkaline phosphatase; colorimetric phosphatase assay
T5 construct: 1316-1398; made in house; host or cells: E. coli
T5 sequence (O75970 1316-1398 isoform O75970-3): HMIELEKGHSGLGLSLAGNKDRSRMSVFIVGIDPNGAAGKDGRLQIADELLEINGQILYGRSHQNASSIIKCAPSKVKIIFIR
Text: as §1, §2

MMSC2 PDZ domain 13 (P4) = target: T6, MMSC2 PDZ domain 13 (P4) (Homo sapiens, UniProt O75970); test: PDZ binding assay (ELISA), PDZ domain 13; conditions: for A405: immobilized GST-PDZ domain 13 (P4), biotinylated peptide pre-bound to streptavidin-alkaline phosphatase, colorimetric phosphatase assay
T6 construct: 1953-2037; made in house; host or cells: E. coli
T6 sequence (O75970 1953-2037 isoform O75970-3): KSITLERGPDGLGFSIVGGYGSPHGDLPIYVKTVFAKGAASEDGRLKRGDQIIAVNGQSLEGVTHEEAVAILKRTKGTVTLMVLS
Text: as §3, §2

MMSC2 PDZ domain 1 (P15) = target: T7, MMSC2 PDZ domain 1 (P15) (Homo sapiens, UniProt O75970); test: PDZ binding assay (ELISA), PDZ domain 1; conditions: immobilized GST-PDZ domain 1 (P15); biotinylated peptide pre-bound to streptavidin-alkaline phosphatase; colorimetric phosphatase assay
T7 construct: 136-222; made in house; host or cells: E. coli
T7 sequence (O75970 136-222 isoform O75970-3): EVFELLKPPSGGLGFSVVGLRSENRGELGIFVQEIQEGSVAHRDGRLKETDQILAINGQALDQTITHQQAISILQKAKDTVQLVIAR
Text: as §1, §2

MMSC2 PDZ domain 11 (P2) = target: T8, MMSC2 PDZ domain 11 (P2) (Homo sapiens, UniProt O75970); test: PDZ binding assay (ELISA), PDZ domain 11; conditions: immobilized GST-PDZ domain 11 (P2); biotinylated peptide pre-bound to streptavidin-alkaline phosphatase; colorimetric phosphatase assay
T8 construct: 1691-1772; made in house; host or cells: E. coli
T8 sequence (O75970 1691-1772 isoform O75970-3): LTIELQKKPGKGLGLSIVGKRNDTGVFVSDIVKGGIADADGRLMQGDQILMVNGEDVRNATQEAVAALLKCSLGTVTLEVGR
Text: as §1, §2

MMSC2 PDZ domain 12 (P3) = target: T9, MMSC2 PDZ domain 12 (P3) (Homo sapiens, UniProt O75970); test: PDZ binding assay (ELISA), PDZ domain 12; conditions: immobilized GST-PDZ domain 12 (P3); biotinylated peptide pre-bound to streptavidin-alkaline phosphatase; colorimetric phosphatase assay
T9 construct: 1828-1913; made in house; host or cells: E. coli
T9 sequence (O75970 1828-1913 isoform O75970-3): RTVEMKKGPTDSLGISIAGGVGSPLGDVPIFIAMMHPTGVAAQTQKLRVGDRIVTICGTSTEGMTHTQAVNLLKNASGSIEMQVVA
Text: as §1, §2

MMSC2 PDZ domain 4 (P10) = target: T10, MMSC2 PDZ domain 4 (P10) (Homo sapiens, UniProt O75970); test: PDZ binding assay (ELISA), PDZ domain 4; conditions: immobilized GST-PDZ domain 4 (P10); biotinylated peptide pre-bound to streptavidin-alkaline phosphatase; colorimetric phosphatase assay
T10 construct: 555-632; made in house; host or cells: E. coli
T10 sequence (O75970 555-632 isoform O75970-3): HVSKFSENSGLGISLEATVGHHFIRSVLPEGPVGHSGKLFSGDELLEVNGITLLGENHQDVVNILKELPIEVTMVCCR
Text: as §1, §2

MMSC2 PDZ domain 2 (P14) = target: T11, MMSC2 PDZ domain 2 (P14) (Homo sapiens, UniProt O75970); test: PDZ binding assay (ELISA), PDZ domain 2; conditions: immobilized GST-PDZ domain 2 (P14); biotinylated peptide pre-bound to streptavidin-alkaline phosphatase; colorimetric phosphatase assay
T11 construct: 256-335; made in house; host or cells: E. coli
T11 sequence (O75970 256-335 isoform O75970-3): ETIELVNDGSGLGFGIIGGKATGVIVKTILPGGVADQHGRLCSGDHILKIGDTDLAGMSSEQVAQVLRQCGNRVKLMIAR
Text: as §1, §2

MMSC2 PDZ domain 9 (P7) = target: T12, MMSC2 PDZ domain 9 (P7) (Homo sapiens, UniProt O75970); test: PDZ binding assay (ELISA), PDZ domain 9; conditions: immobilized GST-PDZ domain 9 (P7); biotinylated peptide pre-bound to streptavidin-alkaline phosphatase; colorimetric phosphatase assay
T12 construct: 1439-1529; made in house; host or cells: E. coli
T12 sequence (O75970 1439-1529 isoform O75970-3): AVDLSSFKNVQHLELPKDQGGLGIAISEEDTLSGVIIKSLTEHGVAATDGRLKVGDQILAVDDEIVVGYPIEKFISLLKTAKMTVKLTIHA
Text: as §1, §2

MMSC2 PDZ domain 7 (P9) = target: T13, MMSC2 PDZ domain 7 (P9) (Homo sapiens, UniProt O75970); test: PDZ binding assay (ELISA), PDZ domain 7; conditions: for A405: immobilized GST-PDZ domain 7 (P9), biotinylated peptide pre-bound to streptavidin-alkaline phosphatase, colorimetric phosphatase assay
T13 construct: 1150-1241; made in house; host or cells: E. coli
T13 sequence (O75970 1150-1241 isoform O75970-3): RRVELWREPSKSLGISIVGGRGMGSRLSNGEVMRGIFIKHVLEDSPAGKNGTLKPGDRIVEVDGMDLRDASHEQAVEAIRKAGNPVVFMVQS
Text: as §3, §2

Biotin-SGSGILAPPVPPRNTR-OH [SH3, reference compound]
A405 (MMSC2 PDZ domain 5 (P12)): 0.005 | A405 (MMSC2 PDZ domain 6 (P11)): 0.017 | A405 (MMSC2 PDZ domain 3 (P13)): 0.008 | A405 (MMSC2 PDZ domain 10 (P1)): 0.002 | A405 (MMSC2 PDZ domain 8 (P8)): 0.008 | A405 (MMSC2 PDZ domain 13 (P4)): 0.006 | A405 (MMSC2 PDZ domain 1 (P15)): 0.007 | A405 (MMSC2 PDZ domain 11 (P2)): 0.009 | A405 (MMSC2 PDZ domain 12 (P3)): 0.011 | A405 (MMSC2 PDZ domain 4 (P10)): 0.010 | A405 (MMSC2 PDZ domain 2 (P14)): 0.006 | A405 (MMSC2 PDZ domain 9 (P7)): 0.009 | A405 (MMSC2 PDZ domain 7 (P9)): 0.006

Biotin-ENEPFDEDQHTQITKV-OH [MMAC1]
A405 (MMSC2 PDZ domain 5 (P12)): 0.000 | A405 (MMSC2 PDZ domain 6 (P11)): 0.016 | A405 (MMSC2 PDZ domain 3 (P13)): 0.006 | interaction of PDZ domain with MMAC1 (in words) (MMSC2 PDZ domain 10 (P1); PDZ domain number 10): interact | A405 (MMSC2 PDZ domain 10 (P1)): 0.174 | A405 (MMSC2 PDZ domain 8 (P8)): 0.006 | interaction of PDZ domain with MMAC1 (in words) (MMSC2 PDZ domain 13 (P4); PDZ domain number 13): interact | A405 (MMSC2 PDZ domain 13 (P4)): 0.456 | A405 (MMSC2 PDZ domain 1 (P15)): 0.011 | A405 (MMSC2 PDZ domain 11 (P2)): 0.012 | A405 (MMSC2 PDZ domain 12 (P3)): 0.003 | A405 (MMSC2 PDZ domain 4 (P10)): 0.024 | A405 (MMSC2 PDZ domain 2 (P14)): 0.001 | A405 (MMSC2 PDZ domain 9 (P7)): 0.017 | interaction of PDZ domain with MMAC1 (in words) (MMSC2 PDZ domain 7 (P9); PDZ domain number 7, 7 appearing stronger): interact | A405 (MMSC2 PDZ domain 7 (P9)): 0.667
